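Dose response: 5 concentrations. Exposure: 48 h. Format: 96-well plates. Endpoint: linear interpolation; highest concentration if not reached. The concentration for full growth arrest is given as TGI.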
system: PC-3 prostate; test: inhibition of tumour cell growth, NCI panel, 48 h

Question: How did the TGI turn out when O=C1CSC(c2ccccc2O)N1c1ccc(-n2c(-c3ccccc3)nc3ccccc3c2=O)cc1 (configuration not stated) was run?
Answer: 58.7 µM

Question: For Cc1ccc(C(=O)Oc2ccccc2)cc1N=NN(C)C, which TGI is on record?
Answer: > 100 µM

Question: For O=C1NC2(CCNCC2)Oc2ccccc21, which TGI is on record?
Answer: > 100 µM

Question: With Cc1c(/C=N/NC(=S)N2CCCCC2)c(=O)n(-c2ccccc2)n1C as the compound, how does the TGI read?
Answer: > 100 µM

Question: Which TGI does the source give for CC(C)(C)OC(=O)CCCCCNC(=O)CCCCCNC(=O)CCC(CN(CC(=O)OCc1ccccc1)CC(=O)OCc1ccccc1)N(CC(=O)OCc1ccccc1)CC(=O)OCc1ccccc1 (configuration not stated) here?
Answer: > 100 µM

Question: How did the TGI turn out when O=[N+]([O-])/C(Cl)=C(/C(Cl)=C(Cl)Cl)N1CCOCC1 was run?
Answer: 19.3 µM

Question: With CN=c1sc2nc(C#N)c(C#N)nc2n1C as the compound, how does the TGI read?
Answer: > 100 µM

Question: How did the TGI turn out when CC(C)OP(=O)(OC(C)C)C(C)(C)O was run?
Answer: > 100 µM

Question: For COC(=O)C(=O)Nc1cc2c3c(c1)Oc1cccc4c1C3(C)c1c(cccc1O2)O4, which TGI is on record?
Answer: > 100 µM

system: RPMI-8226 leukemia; test: inhibition of tumour cell growth, NCI panel, 48 h

Question: How did the TGI turn out when O=C(Nc1ccccc1)OCCN=C1c2ccccc2CCc2ccccc21 was run?
Answer: 36.1 µM

Question: How did the TGI turn out when COc1cc2cc(C(=O)N3CC(CCl)c4ccc([N+](C)(C)Cc5ccccc5[N+](=O)[O-])cc43)[nH]c2c(OC)c1OC (configuration not stated) was run?
Answer: 5.3 µM

Question: For CC(C)[C@H]1NC(=O)[C@H]2N=C(S[C@H]2C)[C@@H]2CCCN2C(=O)[C@H](Cc2ccccc2)NC(=O)[C@@H]2CSC(=N2)[C@@H](Cc2ccccc2)NC(=O)[C@@H]2CSC1=N2, which TGI is on record?
Answer: 19.8 µM

Question: How did the TGI turn out when O=C1Oc2ccccc2C(=O)/C1=C/N1C(=O)CNC1=S was run?
Answer: > 100 µM

Question: How did the TGI turn out when CC1=NN(c2nc(N)nc(/C(C#N)=C\c3ccc(-c4ccc([N+](=O)[O-])cc4)o3)n2)C(C)(C)C1 was run?
Answer: > 100 µM

Question: COc1ccc2nc3ccc(OC)cc3c(SCCCl)c2c1 was tested. Which TGI did it give?
Answer: 10.6 µM

Question: For CC(Oc1ccccc1Cl)C(=O)NN1C(=O)CC(=O)N(c2ccc(Cl)cc2)C1=S (configuration not stated), which TGI is on record?
Answer: > 100 µM

Question: CC(C)[Si]1(C(C)C)OCC2OC(n3ccc(=O)[nH]c3=O)C([Se]c3ccccc3)C2O[Si](C(C)C)(C(C)C)O1 (configuration not stated) was tested. Which TGI did it give?
Answer: 10.9 µM

Question: O=C1NCN(c2ccccc2)C12CCN(CC1COc3ccccc3O1)CC2 (configuration not stated) was tested. Which TGI did it give?
Answer: > 100 µM

Question: With O=C1OC([C@H](O)c2cccnc2)c2ccccc21 (some centres not stated) as the compound, how does the TGI read?
Answer: > 10 µM

Question: How did the TGI turn out when CC(C)(C)OC(=O)N1CCCC1C(=O)NC(c1ccccc1)c1ccccc1 (configuration not stated) was run?
Answer: > 100 µM

Question: O=C1Cc2cn[nH]c2-c2ccccc2N1 was tested. Which TGI did it give?
Answer: 66.1 µM

Question: For O=CNc1ccccc1OCCOc1ccccc1NC=O, which TGI is on record?
Answer: > 100 µM

Question: C=CCN1CCC(c2cc(C(=O)OCC)[nH]c2-c2cc(C)no2)C1=O (configuration not stated) was tested. Which TGI did it give?
Answer: > 100 µM

Question: O=c1[nH][nH]c(=O)c2c1ccc1oc3ccccc3c12 was tested. Which TGI did it give?
Answer: > 100 µM

Question: For O=C1CSC(c2ccccc2O)N1c1ccc(-n2c(-c3ccccc3)nc3ccccc3c2=O)cc1 (configuration not stated), which TGI is on record?
Answer: > 100 µM

Question: How did the TGI turn out when Cc1ccc(C(=O)Oc2ccccc2)cc1N=NN(C)C was run?
Answer: > 100 µM

Question: Which TGI does the source give for O=C1NC2(CCNCC2)Oc2ccccc21 here?
Answer: > 100 µM

Question: Which TGI does the source give for Cc1c(/C=N/NC(=S)N2CCCCC2)c(=O)n(-c2ccccc2)n1C here?
Answer: > 100 µM

Question: For CC(C)(C)OC(=O)CCCCCNC(=O)CCCCCNC(=O)CCC(CN(CC(=O)OCc1ccccc1)CC(=O)OCc1ccccc1)N(CC(=O)OCc1ccccc1)CC(=O)OCc1ccccc1 (configuration not stated), which TGI is on record?
Answer: > 100 µM

Question: O=[N+]([O-])/C(Cl)=C(/C(Cl)=C(Cl)Cl)N1CCOCC1 was tested. Which TGI did it give?
Answer: 6.58 µM

Question: How did the TGI turn out when CN=c1sc2nc(C#N)c(C#N)nc2n1C was run?
Answer: > 84.9 µM

Question: With CC(C)OP(=O)(OC(C)C)C(C)(C)O as the compound, how does the TGI read?
Answer: > 100 µM

Question: How did the TGI turn out when COC(=O)C(=O)Nc1cc2c3c(c1)Oc1cccc4c1C3(C)c1c(cccc1O2)O4 was run?
Answer: > 100 µM

system: UACC-62 melanoma; test: inhibition of tumour cell growth, NCI panel, 48 h

Question: Which TGI does the source give for O=C(Nc1ccccc1)OCCN=C1c2ccccc2CCc2ccccc21 here?
Answer: 26.7 µM

Question: Which TGI does the source give for COc1cc2cc(C(=O)N3CC(CCl)c4ccc([N+](C)(C)Cc5ccccc5[N+](=O)[O-])cc43)[nH]c2c(OC)c1OC (configuration not stated) here?
Answer: 2.76 µM

Question: For CC(C)[C@H]1NC(=O)[C@H]2N=C(S[C@H]2C)[C@@H]2CCCN2C(=O)[C@H](Cc2ccccc2)NC(=O)[C@@H]2CSC(=N2)[C@@H](Cc2ccccc2)NC(=O)[C@@H]2CSC1=N2, which TGI is on record?
Answer: > 50 µM

Question: Which TGI does the source give for O=C1Oc2ccccc2C(=O)/C1=C/N1C(=O)CNC1=S here?
Answer: > 100 µM

Question: CC1=NN(c2nc(N)nc(/C(C#N)=C\c3ccc(-c4ccc([N+](=O)[O-])cc4)o3)n2)C(C)(C)C1 was tested. Which TGI did it give?
Answer: > 100 µM

Question: For COc1ccc2nc3ccc(OC)cc3c(SCCCl)c2c1, which TGI is on record?
Answer: > 77.6 µM

Question: With CC(Oc1ccccc1Cl)C(=O)NN1C(=O)CC(=O)N(c2ccc(Cl)cc2)C1=S (configuration not stated) as the compound, how does the TGI read?
Answer: > 100 µM

Question: With CC(C)[Si]1(C(C)C)OCC2OC(n3ccc(=O)[nH]c3=O)C([Se]c3ccccc3)C2O[Si](C(C)C)(C(C)C)O1 (configuration not stated) as the compound, how does the TGI read?
Answer: 14.8 µM

Question: For O=C1NCN(c2ccccc2)C12CCN(CC1COc3ccccc3O1)CC2 (configuration not stated), which TGI is on record?
Answer: > 100 µM

Question: O=C1OC([C@H](O)c2cccnc2)c2ccccc21 (some centres not stated) was tested. Which TGI did it give?
Answer: > 10 µM

Question: Which TGI does the source give for CC(C)(C)OC(=O)N1CCCC1C(=O)NC(c1ccccc1)c1ccccc1 (configuration not stated) here?
Answer: > 100 µM

Question: O=C1Cc2cn[nH]c2-c2ccccc2N1 was tested. Which TGI did it give?
Answer: 63.5 µM

Question: For O=CNc1ccccc1OCCOc1ccccc1NC=O, which TGI is on record?
Answer: > 100 µM

Question: How did the TGI turn out when C=CCN1CCC(c2cc(C(=O)OCC)[nH]c2-c2cc(C)no2)C1=O (configuration not stated) was run?
Answer: > 100 µM

Question: How did the TGI turn out when O=c1[nH][nH]c(=O)c2c1ccc1oc3ccccc3c12 was run?
Answer: > 100 µM

Question: Which TGI does the source give for O=C1CSC(c2ccccc2O)N1c1ccc(-n2c(-c3ccccc3)nc3ccccc3c2=O)cc1 (configuration not stated) here?
Answer: 90.3 µM

Question: For Cc1ccc(C(=O)Oc2ccccc2)cc1N=NN(C)C, which TGI is on record?
Answer: > 100 µM

Question: Which TGI does the source give for O=C1NC2(CCNCC2)Oc2ccccc21 here?
Answer: > 100 µM

Question: Cc1c(/C=N/NC(=S)N2CCCCC2)c(=O)n(-c2ccccc2)n1C was tested. Which TGI did it give?
Answer: > 100 µM

Question: CC(C)(C)OC(=O)CCCCCNC(=O)CCCCCNC(=O)CCC(CN(CC(=O)OCc1ccccc1)CC(=O)OCc1ccccc1)N(CC(=O)OCc1ccccc1)CC(=O)OCc1ccccc1 (configuration not stated) was tested. Which TGI did it give?
Answer: > 100 µM

Question: How did the TGI turn out when O=[N+]([O-])/C(Cl)=C(/C(Cl)=C(Cl)Cl)N1CCOCC1 was run?
Answer: 5.62 µM

Question: Which TGI does the source give for CN=c1sc2nc(C#N)c(C#N)nc2n1C here?
Answer: 40.6 µM

Question: How did the TGI turn out when CC(C)OP(=O)(OC(C)C)C(C)(C)O was run?
Answer: > 100 µM

Question: With COC(=O)C(=O)Nc1cc2c3c(c1)Oc1cccc4c1C3(C)c1c(cccc1O2)O4 as the compound, how does the TGI read?
Answer: > 100 µM
